Values joined by “and” are separate entries in the source; they are usually repeats but may differ in a detail not shown here. Identical values can stand only once.
Test: xn = mol fraction of the nth substance listed

CC(=O)O + c1ccccc1
Conditions | viscosity
293.15 K, 101 kPa, x1 = 0.2158 | 0.658 mPa·s
293.15 K, 101 kPa, x1 = 0.3643 | 0.684 mPa·s
293.15 K, 101 kPa, x1 = 0.4322 | 0.67 mPa·s
293.15 K, 101 kPa, x1 = 0.5213 | 0.684 mPa·s
293.15 K, 101 kPa, x1 = 0.7321 | 0.723 mPa·s
293.15 K, 101 kPa, x1 = 0.9233 | 0.808 mPa·s
298.1 K, 101 kPa, x1 = 0.2 | 0.598 mPa·s
298.1 K, 101 kPa, x1 = 0.4 | 0.617 mPa·s
298.1 K, 101 kPa, x1 = 0.5 | 0.636 mPa·s
298.1 K, 101 kPa, x1 = 0.6 | 0.672 mPa·s
298.1 K, 101 kPa, x1 = 0.8 | 0.802 mPa·s
298.15 K, 101 kPa, x1 = 0.2158 | 0.632 mPa·s
298.15 K, 101 kPa, x1 = 0.3643 | 0.661 mPa·s
298.15 K, 101 kPa, x1 = 0.4322 | 0.65 mPa·s
298.15 K, 101 kPa, x1 = 0.5213 | 0.663 mPa·s
298.15 K, 101 kPa, x1 = 0.7321 | 0.668 mPa·s
298.15 K, 101 kPa, x1 = 0.9233 | 0.716 mPa·s
298.15 K, 101.33 kPa, x2 = 0.1 | 0.9008 mPa·s
298.15 K, 101.33 kPa, x2 = 0.1339 | 0.893 mPa·s
298.15 K, 101.33 kPa, x2 = 0.25 | 0.7374 mPa·s and 0.754 mPa·s
298.15 K, 101.33 kPa, x2 = 0.2921 | 0.734 mPa·s
298.15 K, 101.33 kPa, x2 = 0.4 | 0.655 mPa·s
298.15 K, 101.33 kPa, x2 = 0.4179 | 0.666 mPa·s
298.15 K, 101.33 kPa, x2 = 0.5 | 0.6298 mPa·s and 0.653 mPa·s
298.15 K, 101.33 kPa, x2 = 0.7231 | 0.597 mPa·s
298.15 K, 101.33 kPa, x2 = 0.75 | 0.5983 mPa·s
298.15 K, 101.33 kPa, x2 = 0.7711 | 0.596 mPa·s
298.15 K, 101.33 kPa, x2 = 0.8704 | 0.591 mPa·s
298.15 K, 101.33 kPa, x2 = 0.9645 | 0.594 mPa·s
303.15 K, 101 kPa, x1 = 0.2158 | 0.61 mPa·s
303.15 K, 101 kPa, x1 = 0.3643 | 0.628 mPa·s
303.15 K, 101 kPa, x1 = 0.4322 | 0.624 mPa·s
303.15 K, 101 kPa, x1 = 0.5213 | 0.642 mPa·s
303.15 K, 101 kPa, x1 = 0.7321 | 0.653 mPa·s
303.15 K, 101 kPa, x1 = 0.9233 | 0.71 mPa·s
303.15 K, 101 kPa, x2 = 0.1603 | 0.8519 mPa·s
303.15 K, 101 kPa, x2 = 0.39 | 0.6887 mPa·s
303.15 K, 101 kPa, x2 = 0.7224 | 0.5822 mPa·s
313.15 K, 101 kPa, x2 = 0.1603 | 0.7841 mPa·s
313.15 K, 101 kPa, x2 = 0.39 | 0.6245 mPa·s
313.15 K, 101 kPa, x2 = 0.7224 | 0.5111 mPa·s
323.15 K, 101 kPa, x2 = 0.1603 | 0.7112 mPa·s
323.15 K, 101 kPa, x2 = 0.39 | 0.5776 mPa·s
323.15 K, 101 kPa, x2 = 0.7224 | 0.4939 mPa·s

CC(=O)O + c1ccncc1
Conditions | viscosity [mPa·s]
293.15 K, 101 kPa, x2 = 0.104 | 4.421
293.15 K, 101 kPa, x2 = 0.2205 | 5.037
293.15 K, 101 kPa, x2 = 0.383 | 3.024
293.15 K, 101 kPa, x2 = 0.401 | 2.885
293.15 K, 101 kPa, x2 = 0.481 | 2.188
293.15 K, 101 kPa, x2 = 0.579 | 1.762
293.15 K, 101 kPa, x2 = 0.738 | 1.289
303.15 K, 101 kPa, x1 = 0.135 | 0.9842
303.15 K, 101 kPa, x1 = 0.2599 | 1.139
303.15 K, 101 kPa, x1 = 0.3756 | 1.346
303.15 K, 101 kPa, x1 = 0.4837 | 1.648
303.15 K, 101 kPa, x1 = 0.5841 | 2.075
303.15 K, 101 kPa, x1 = 0.6781 | 2.704
303.15 K, 101 kPa, x1 = 0.766 | 3.398
303.15 K, 101 kPa, x1 = 0.8509 | 3.624
303.15 K, 101 kPa, x1 = 0.9266 | 2.558
308.15 K, 101.33 kPa, x2 = 0.15 | 3.2
308.15 K, 101.33 kPa, x2 = 0.2 | 3.17
308.15 K, 101.33 kPa, x2 = 0.25 | 2.887
308.15 K, 101.33 kPa, x2 = 0.3 | 2.55
308.15 K, 101.33 kPa, x2 = 0.4 | 1.928
308.15 K, 101.33 kPa, x2 = 0.6 | 1.27
308.15 K, 101.33 kPa, x2 = 0.8 | 1.052
313.15 K, 101.33 kPa, x1 = 0.5 | 1.68
313.15 K, 101.33 kPa, x1 = 0.8 | 2.91
313.15 K, 101.33 kPa, x1 = 0.825 | 2.93
313.15 K, 101.33 kPa, x1 = 0.85 | 2.85
318.15 K, 101.33 kPa, x2 = 0.15 | 2.35
318.15 K, 101.33 kPa, x2 = 0.2 | 2.38
318.15 K, 101.33 kPa, x2 = 0.25 | 2.2
318.15 K, 101.33 kPa, x2 = 0.3 | 1.985
318.15 K, 101.33 kPa, x2 = 0.4 | 1.52
318.15 K, 101.33 kPa, x2 = 0.6 | 1.07
318.15 K, 101.33 kPa, x2 = 0.8 | 0.896

C1CCC2=[NH+]CCCN2CC1.c1c[n-]cn1 + O
Conditions | viscosity [mPa·s]
298.15 K, 100 kPa, x1 = 0.2994 | 42.65

CCC(C)Br (centres undefined) + CC(C)(C)O
viscosity [mPa·s], 101.3 kPa
Conditions | x1 = 0.05 | x1 = 0.102 | x1 = 0.2043 | x1 = 0.3044 | x1 = 0.4041 | x1 = 0.5032 | x1 = 0.6203 | x1 = 0.7036 | x1 = 0.8056 | x1 = 0.9064
298.15 K | 3.175 | 2.363 | 1.519 | 1.152 | 0.9576 | 0.8183 | 0.7087 | 0.6532 | 0.6048 | 0.5718
313.15 K | 1.651 | 1.36 | 0.9969 | 0.8102 | 0.7146 | 0.6337 | 0.5665 | 0.5317 | 0.4987 | 0.4777

CCNc1ccccc1 + CC(C)(C)O
viscosity [mPa·s], 101 kPa
Conditions | 303.15 K | 308.15 K
x1 = 0.0789 | 3.287 | 2.6
x1 = 0.1325 | 3.222 | 2.566
x1 = 0.1974 | 3.139 | 2.522
x1 = 0.2562 | 3.061 | 2.478
x1 = 0.3315 | 2.957 | 2.414
x1 = 0.4056 | 2.848 | 2.343
x1 = 0.4868 | 2.717 | 2.256
x1 = 0.5626 | 2.59 | 2.167
x1 = 0.6195 | 2.488 | 2.096
x1 = 0.6889 | 2.359 | 2.003
x1 = 0.7514 | 2.241 | 1.916
x1 = 0.8214 | 2.102 | 1.815
x1 = 0.8914 | 1.96 | 1.71

ClCCl + c1ccccc1
101.33 kPa
Conditions | viscosity [mPa·s]
293.15 K, x1 = 0.1454 | 0.591
293.15 K, x1 = 0.259 | 0.559
293.15 K, x1 = 0.3662 | 0.531
293.15 K, x1 = 0.4451 | 0.513
293.15 K, x1 = 0.5158 | 0.498
293.15 K, x1 = 0.5932 | 0.484
293.15 K, x1 = 0.6593 | 0.471
293.15 K, x1 = 0.714 | 0.463
293.15 K, x1 = 0.764 | 0.456
298.15 K, x1 = 0.2149 | 0.535
298.15 K, x1 = 0.2959 | 0.514
298.15 K, x1 = 0.3817 | 0.497
298.15 K, x1 = 0.4921 | 0.477
298.15 K, x1 = 0.5445 | 0.466
298.15 K, x1 = 0.5957 | 0.458
298.15 K, x1 = 0.6358 | 0.452
298.15 K, x1 = 0.6923 | 0.445
303.15 K, x1 = 0.1659 | 0.516
303.15 K, x1 = 0.2665 | 0.494
303.15 K, x1 = 0.3831 | 0.468
303.15 K, x1 = 0.4907 | 0.446
303.15 K, x1 = 0.5944 | 0.429
303.15 K, x1 = 0.6777 | 0.419
303.15 K, x1 = 0.7557 | 0.412
303.15 K, x1 = 0.8164 | 0.406

C1CCC2=[NH+]CCCN2CC1.c1c[n-]cn1 + CCO
298.15 K, 100 kPa
Conditions | viscosity [mPa·s]
x1 = 0.0998 | 1.95
x1 = 0.1996 | 3.268
x1 = 0.2995 | 5.15
x1 = 0.3994 | 7.752
x1 = 0.4994 | 10.78
x1 = 0.5994 | 14.23
x1 = 0.6995 | 19.14
x1 = 0.7996 | 23.96
x1 = 0.8998 | 28.78

— the CheMixHub viscosity set
